Test results from patent publication US7034035B2, “Fungicidal mono-, bi-, and tri-cycloheteroalkyl amides and their compositions, methods of use and preparation” (priority 1999, dated 2006).
Where two headings read alike, the source gives them in different places.

Columns and labels:
[1] = tested on: Rhizoctonia solani (RHIZSO); assay: microbe, parasite or virus in culture; format: cell-based
Ustilago maydis (USTIMA) = assay: microbe, parasite or virus in culture; format: cell-based
[2] = tested on: Leptosphaeria nodorum—LEPTNO; assay: Glume Blotch of Wheat, in vivo whole plant, 24 Hour Protectant; settings: Leptosphaeria, 24 h, inoculated after 24 hours, read-out: LEPTNO in vivo 1 Day Protectant
[3] = wheat (cultivar Yuma), sprayed at 100 ppm, control of fungal infection vs untreated plants
[4] = wheat plants sprayed at 100 ppm, control vs untreated plants

| SMILES | RHIZSO in vitro Growth Inhibition [1] | USTIMA in vitro Growth Inhibition (Ustilago maydis (USTIMA)) | pest or weed control at 100 ppm [2, 3] [%] | pest or weed control at 100 ppm [2, 4] [%] |
| --- | --- | --- | --- | --- |
| COc1ccnc(C(=O)N[C@H]2CC[C@H](Oc3ccc(C(F)(F)F)cc3)CC2)c1O [Compound 270] | + (key: +: at least 80% growth inhibition; −: less than 80% growth inhibition) | + (key: +: at least 80% growth inhibition; −: less than 80% growth inhibition) | 75 to 100 |  |
| CC(C)C(=O)O[C@H]1[C@H](C)OC(=O)[C@@H](NC(=O)c2nscc2O)COC(=O)[C@@H]1Cc1ccccc1 [Compound 550] |  |  |  | 75 to 100 |
| COc1ccnc(C(=O)N[C@H]2COC(=O)[C@H](Cc3ccccc3)[C@@H](OC(=O)OC(C)C)[C@H](C)OC2=O)c1O [Compound 401] |  |  | 75 to 100 |  |
| COc1ccnc(C(=O)Nc2ccc(OC3CC(C)(C)CC(C)(C)C3)cc2)c1O [Compound 458] |  |  |  | 75 to 100 |
| COc1ccnc(C(=O)N[C@H]2COC(=O)[C@H](Cc3ccccc3)[C@@H](OC(C)=O)[C@H](C)OC2=O)c1O [Compound 385] |  |  | 75 to 100 |  |
| COc1ccnc(C(=O)N[C@H]2COC(=O)[C@H](Cc3ccccc3)[C@@H](OC(=O)c3ccccc3)[C@H](C)OC2=O)c1O [Compound 394] |  |  | 75 to 100 |  |
| COc1ccnc(C(=O)N[C@H]2COC(=O)[C@H](Cc3ccccc3)[C@@H](OC(=O)NC(C)(C)C)[C@H](C)OC2=O)c1O [Compound 400] |  |  | 75 to 100 |  |
| CO/N=C(/c1ccc(NC(=O)c2nccc(OC)c2O)cc1)c1ccc(C(F)(F)F)cc1 [Compound 409] |  |  | 75 to 100 |  |
| COc1ccnc(C(=O)Nc2ccc(OCc3ccc(C(F)(F)F)cc3)cc2)c1O [Compound 448] |  |  | 75 to 100 |  |
| COc1ccnc(C(=O)N[C@H]2COC(=O)[C@H](Cc3ccccc3)[C@@H](OC(=O)C3CC3)[C@H](C)OC2=O)c1O [Compound 387] |  |  | 75 to 100 |  |
| COc1ccnc(C(=O)Nc2ccc(Sc3cccc(C(F)(F)F)c3)cc2)c1O [Compound 445] |  |  | 75 to 100 |  |
| CC(C)C(=O)O[C@H]1[C@H](C)OC(=O)[C@@H](NC(=O)c2nccnc2O)COC(=O)[C@@H]1Cc1ccccc1 [Compound 534] |  |  |  | 75 to 100 |
| COc1ccnc(C(=O)Nc2cccc(Oc3ccc(Cl)cc3)c2)c1O [Compound 440] |  |  | 75 to 100 |  |
| COc1ccnc(C(=O)NC2CC(C)(C)CC(C)(C(=O)CCCc3ccccc3)C2)c1O (stereo not drawn) [Compound 276] | − (key: +: at least 80% growth inhibition; −: less than 80% growth inhibition) | − (key: +: at least 80% growth inhibition; −: less than 80% growth inhibition) | 75 to 100 |  |
| COc1ccnc(C(=O)N[C@H]2COC(=O)[C@H](Cc3ccccc3)[C@@H](OC(=O)C(C)(C)C)[C@H](C)OC2=O)c1O [Compound 388] |  |  | 75 to 100 |  |
| COc1ccnc(C(=O)N[C@H]2COC(=O)[C@H](Oc3ccccc3)[C@@H](OC(=O)C(C)C)[C@H](C)OC2=O)c1O [Compound 403] |  |  | 75 to 100 |  |
| COc1ccnc(C(=O)N[C@H]2COC(=O)[C@H](Cc3ccccc3)[C@@H](OC(=O)C3CCCCC3)[C@H](C)OC2=O)c1O [Compound 392] |  |  | 75 to 100 |  |
| COc1ccnc(C(=O)N[C@H]2COC(=O)[C@H](Cc3ccccc3)C[C@H](C)OC2=O)c1O [Compound 382] |  |  | 75 to 100 |  |
| COc1ccnc(C(=O)NC(C)c2ccc(Cl)cc2)c1O (stereo not drawn) [Compound 246] | − (key: +: at least 80% growth inhibition; −: less than 80% growth inhibition) | − (key: +: at least 80% growth inhibition; −: less than 80% growth inhibition) | 75 to 100 |  |
| COc1nc(O)c(C(=O)N[C@H]2COC(=O)[C@H](Cc3ccccc3)[C@@H](OC(=O)C(C)C)[C@H](C)OC2=O)nc1Cl [Compound 537] |  |  |  | 75 to 100 |
| COc1ccnc(C(=O)N[C@H]2COC(=O)[C@H](Cc3ccccc3)[C@@H](OC(=O)NC(C)C)[C@H](C)OC2=O)c1O [Compound 399] |  |  | 75 to 100 |  |

| SMILES | RHIZSO in vitro Growth Inhibition [1] | USTIMA in vitro Growth Inhibition (Ustilago maydis (USTIMA)) | pest or weed control at 100 ppm [2, 3] [%] | pest or weed control at 100 ppm [2, 4] [%] |
| --- | --- | --- | --- | --- |
| Cc1nc(O)c(C(=O)N[C@H]2COC(=O)[C@H](Cc3ccccc3)[C@@H](OC(=O)C(C)C)[C@H](C)OC2=O)nc1C [Compound 536] |  |  |  | 75 to 100 |
| O=C(Nc1ccc(Oc2ccccc2)cc1)c1cccnc1O [Compound 522] |  |  |  | 75 to 100 |
| COc1ccnc(C(=O)Nc2ccc(Oc3ccc(C)cc3)cc2)c1O [Compound 417] |  |  | 75 to 100 |  |
| COc1ccnc(C(=O)Nc2ccc(OC3CC(C)(C)OC(C)(C)C3)cc2)c1O [Compound 459] |  |  |  | 75 to 100 |
| C=C(C)C(=O)O[C@H]1[C@H](C)OC(=O)[C@@H](NC(=O)c2nccc(OC)c2O)COC(=O)[C@@H]1Cc1ccccc1 [Compound 386] |  |  | 75 to 100 |  |
| CC(C)C(=O)O[C@H]1[C@H](C)OC(=O)[C@@H](NC(=O)c2ccncc2O)COC(=O)[C@@H]1Cc1ccccc1 [Compound 513] |  |  |  | 75 to 100 |
| COc1ccnc(C(=O)NC(C(=O)OCC(C)C)C(C)OC(=O)C(C)Cc2ccccc2)c1O (stereo not drawn) [Compound 360] |  |  | 75 to 100 |  |
| COc1ccnc(C(=O)N[C@@H]2CC3CC2C2C(=O)N(CC(C)C)C(=O)C32)c1O (stereo partly drawn) [Compound 303] | − (key: +: at least 80% growth inhibition; −: less than 80% growth inhibition) | − (key: +: at least 80% growth inhibition; −: less than 80% growth inhibition) |  |  |
| COc1ccnc(C(=O)N[C@H]2CO[C@@](C)(C(C)CC3=C(C)CCCC3(C)C)OC2)c1O (stereo partly drawn) [Compound 318] | + (key: +: at least 80% growth inhibition; −: less than 80% growth inhibition) | − (key: +: at least 80% growth inhibition; −: less than 80% growth inhibition) |  |  |
| O=C(NCC1CCCCC1)c1ncccc1O [Compound 202] | − (key: +: at least 80% growth inhibition; −: less than 80% growth inhibition) | − (key: +: at least 80% growth inhibition; −: less than 80% growth inhibition) |  |  |
| COc1ccnc(C(=O)N[C@@H]2OC[C@@H](OCc3ccccc3)[C@H](OCc3ccccc3)[C@H]2OCc2ccccc2)c1O [Compound 332] | − (key: +: at least 80% growth inhibition; −: less than 80% growth inhibition) | − (key: +: at least 80% growth inhibition; −: less than 80% growth inhibition) |  |  |
| COc1ccnc(C(=O)NCC2COCCOCCOCCOCCO2)c1O (stereo not drawn) [Compound 245] | − (key: +: at least 80% growth inhibition; −: less than 80% growth inhibition) | − (key: +: at least 80% growth inhibition; −: less than 80% growth inhibition) |  |  |
| Cc1ccc(C(=O)N[C@H]2COC(=O)[C@H](Cc3ccccc3)[C@@H](OC(=O)C(C)C)[C@H](C)OC2=O)c(O)n1 [Compound 525] |  |  |  | 75 to 100 |
| O=C(NCc1ccc(Cl)cc1)c1ncccc1O [Compound 220] | + (key: +: at least 80% growth inhibition; −: less than 80% growth inhibition) | + (key: +: at least 80% growth inhibition; −: less than 80% growth inhibition) |  |  |
| O=C(NCCCCc1ccccc1)c1ncccc1O [Compound 234] | − (key: +: at least 80% growth inhibition; −: less than 80% growth inhibition) | − (key: +: at least 80% growth inhibition; −: less than 80% growth inhibition) |  |  |
| COc1ccnc(C(=O)NC2C[C@H](C)O[C@](C)(Cc3ccccc3)C2)c1O (stereo partly drawn) [Compound 313] | − (key: +: at least 80% growth inhibition; −: less than 80% growth inhibition) | − (key: +: at least 80% growth inhibition; −: less than 80% growth inhibition) |  |  |
| COc1ccnc(C(=O)NC2CC(C)(C)C3OC3[C@H](C)[C@H]2C)c1O (stereo partly drawn) [Compound 280] | − (key: +: at least 80% growth inhibition; −: less than 80% growth inhibition) | − (key: +: at least 80% growth inhibition; −: less than 80% growth inhibition) |  |  |
| COc1ccnc(C(=O)N[C@H]2COC(=O)[C@H](Cc3ccccc3)[C@@H](OC(=O)C3CCCC3)[C@H](C)OC2=O)c1O [Compound 391] |  |  | 75 to 100 |  |
| COc1ccnc(C(=O)NC2C[C@H](C)C[C@H](c3ccccn3)C2)c1O (stereo partly drawn) [Compound 259] | − (key: +: at least 80% growth inhibition; −: less than 80% growth inhibition) | − (key: +: at least 80% growth inhibition; −: less than 80% growth inhibition) |  |  |
| Cc1ccc(CNC(=O)c2ncccc2O)cc1 [Compound 223] | − (key: +: at least 80% growth inhibition; −: less than 80% growth inhibition) | + (key: +: at least 80% growth inhibition; −: less than 80% growth inhibition) |  |  |
| COc1ccnc(C(=O)NC2c3ccccc3CC2(C)C)c1O (stereo not drawn) [Compound 284] | − (key: +: at least 80% growth inhibition; −: less than 80% growth inhibition) | − (key: +: at least 80% growth inhibition; −: less than 80% growth inhibition) |  |  |
